Measured values as given in ChEMBL document CHEMBL1201862, “PubChem BioAssay data set” (2004).
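Five compound concentrations were applied to cells in 96-well plates for 48 hours; endpoints were derived by simple linear interpolation of the resulting dose-response curve. At the GI50, growth is halved.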 Calls of active or inactive are those of the source. No stated cut-off is given here; in the data, active = GI50 up to about 1.1 µM and inactive = higher.

Experiments:
Assay in all cases: NCI anticancer screen, dose series, 48 h
[1] = tested on: COLO 205
[2] = tested on: 786-0
[3] = tested on: SK-OV-3
[4] = tested on: TK-10
[5] = tested on: CAKI-1
[6] = tested on: CCRF-CEM
[7] = tested on: SW-620
[8] = tested on: EKVX
[9] = tested on: KM12
[10] = tested on: HOP-92
[11] = tested on: NCI-H522
[12] = tested on: RPMI-8226
[13] = tested on: SK-MEL-5
[14] = tested on: SN12C
[15] = tested on: HL-60
[16] = tested on: OVCAR-5
[17] = tested on: MCF7
[18] = tested on: MDA-N
[19] = tested on: DU-145

SMILES	GI50 [1]	GI50 [2]	GI50 [3]	GI50 [4]	GI50 [5]	GI50 [6]	GI50 [7]	GI50 [8]	GI50 [9]	GI50 [10]	GI50 [11]	GI50 [12]	GI50 [13]	GI50 [14]	GI50 [15]	GI50 [16]	GI50 [17]	GI50 [18]	GI50 [19]
Cc1c(C(=O)C/C(=N/NC(=O)CC#N)C(N)=O)[n+]([O-])c2ccccc2[n+]1[O-]	34.6 µM (inactive)	> 100 µM (inactive)	> 100 µM (inactive)	> 100 µM (inactive)	> 100 µM (inactive)	35.1 µM (inactive)	17.7 µM (inactive)	> 100 µM (inactive)	28 µM (inactive)	> 100 µM (inactive)	19.8 µM (inactive)	33.9 µM (inactive)	40.6 µM (inactive)	30.2 µM (inactive)	17.7 µM (inactive)	> 100 µM (inactive)	–	–	–
O=C(O)CN1CCSc2ccccc2CN(CC(=O)O)CCSc2ccccc2C1	> 100 µM (inactive)	> 100 µM (inactive)	> 100 µM (inactive)	> 100 µM (inactive)	> 100 µM (inactive)	> 100 µM (inactive)	> 100 µM (inactive)	> 100 µM (inactive)	> 100 µM (inactive)	> 100 µM (inactive)	> 100 µM (inactive)	> 100 µM (inactive)	> 100 µM (inactive)	> 100 µM (inactive)	> 100 µM (inactive)	> 100 µM (inactive)	–	–	–
CC(=O)O[C@H]1CC[C@@]2(C)C(=CC[C@H]3C4=CC=C(C(C)=O)[C@@]4(C)CCC32)C1 (stereo partly drawn)	13.4 µM (inactive)	35.5 µM (inactive)	> 100 µM (inactive)	23.7 µM (inactive)	34.8 µM (inactive)	21.4 µM (inactive)	20.9 µM (inactive)	13.1 µM (inactive)	19.9 µM (inactive)	27.6 µM (inactive)	20 µM (inactive)	15.3 µM (inactive)	17.7 µM (inactive)	34.7 µM (inactive)	18 µM (inactive)	27.9 µM (inactive)	–	–	–
CCOC(=O)/C=C/C1(CCOC(C)=O)CCCCC1	> 10 µM (inactive)	> 10 µM (inactive)	> 10 µM (inactive)	> 10 µM (inactive)	> 10 µM (inactive)	> 10 µM (inactive)	> 10 µM (inactive)	> 10 µM (inactive)	> 10 µM (inactive)	> 10 µM (inactive)	> 10 µM (inactive)	> 10 µM (inactive)	> 10 µM (inactive)	> 10 µM (inactive)	> 10 µM (inactive)	> 10 µM (inactive)	> 10 µM (inactive)	> 10 µM (inactive)	> 10 µM (inactive)
C/C=C/C(=O)Oc1cccc2cccnc12	18.6 µM (inactive)	29.2 µM (inactive)	32.9 µM (inactive)	44.2 µM (inactive)	32.6 µM (inactive)	3.7 µM (inactive)	5.61 µM (inactive)	6.85 µM (inactive)	16 µM (inactive)	8.32 µM (inactive)	1.82 µM (inactive)	9.73 µM (inactive)	14.5 µM (inactive)	5.87 µM (inactive)	4.32 µM (inactive)	16.5 µM (inactive)	–	–	–
C=CC1(C)OC2(CCN(C(=O)OCC)CC2)OC1C (stereo not drawn)	> 100 µM (inactive)	> 100 µM (inactive)	> 100 µM (inactive)	> 100 µM (inactive)	> 100 µM (inactive)	> 100 µM (inactive)	> 100 µM (inactive)	> 100 µM (inactive)	> 100 µM (inactive)	> 100 µM (inactive)	> 100 µM (inactive)	> 100 µM (inactive)	> 100 µM (inactive)	–	> 100 µM (inactive)	> 100 µM (inactive)	> 100 µM (inactive)	> 100 µM (inactive)	> 100 µM (inactive)
CCOC(=O)c1ccc(/N=c2/[nH]c3ccccc3s/c2=N/c2ccc(C(=O)OCC)cc2)cc1	> 100 µM (inactive)	25.4 µM (inactive)	> 100 µM (inactive)	> 100 µM (inactive)	> 100 µM (inactive)	> 100 µM (inactive)	> 100 µM (inactive)	> 100 µM (inactive)	> 100 µM (inactive)	> 100 µM (inactive)	5.24 µM (inactive)	> 100 µM (inactive)	> 100 µM (inactive)	> 100 µM (inactive)	> 100 µM (inactive)	> 100 µM (inactive)	–	> 100 µM (inactive)	> 100 µM (inactive)
COc1cc([C@@H]2c3cc4c(cc3[C@@H](/N=C/c3ccc(C(=O)O[C@@H](C(=O)O[C@H]5C[C@@]6(O)[C@@H](OC(=O)c7ccccc7)[C@@H]7[C@]8(OC(C)=O)CO[C@@H]8C[C@H](O)[C@@]7(C)C(=O)[C@H](OC(C)=O)C(=C5C)C6(C)C)[C@@H](NC(=O)c5ccccc5)c5ccccc5)cc3)[C@H]3COC(=O)[C@H]23)OCO4)cc(OC)c1O	0.00891 µM (active)	0.0748 µM (active)	0.0785 µM (active)	14.1 µM (inactive)	6.31 µM (inactive)	0.0118 µM (active)	0.0297 µM (active)	5.93 µM (inactive)	0.0094 µM (active)	> 36.4 µM (inactive)	0.0138 µM (active)	< 0.005 µM (active)	0.0154 µM (active)	0.0393 µM (active)	0.0149 µM (active)	0.0312 µM (active)	0.0128 µM (active)	0.00589 µM (active)	0.0261 µM (active)
O=C(OCc1c(-c2ccccc2)nn(-c2ccccc2)c1COC(=O)Oc1ccccc1)Oc1ccccc1	> 100 µM (inactive)	> 100 µM (inactive)	> 100 µM (inactive)	> 100 µM (inactive)	> 100 µM (inactive)	> 100 µM (inactive)	> 100 µM (inactive)	> 100 µM (inactive)	> 100 µM (inactive)	> 100 µM (inactive)	> 100 µM (inactive)	> 100 µM (inactive)	31.8 µM (inactive)	> 100 µM (inactive)	> 100 µM (inactive)	> 100 µM (inactive)	> 100 µM (inactive)	> 100 µM (inactive)	> 100 µM (inactive)
S=C1C(CCCOCc2ccccc2)C2CCCC23CC2(CCN13)OCCS2 (stereo not drawn)	> 10 µM (inactive)	> 10 µM (inactive)	> 10 µM (inactive)	> 10 µM (inactive)	> 10 µM (inactive)	> 10 µM (inactive)	> 10 µM (inactive)	> 10 µM (inactive)	> 10 µM (inactive)	> 10 µM (inactive)	> 10 µM (inactive)	> 10 µM (inactive)	> 10 µM (inactive)	> 10 µM (inactive)	> 10 µM (inactive)	> 10 µM (inactive)	> 10 µM (inactive)	> 10 µM (inactive)	> 10 µM (inactive)
C[C@]12C/C(=C/O)C(=O)C(O)=C1CC[C@@H]1C2CC[C@@]2(C)C1CC[C@@H]2O (stereo partly drawn)	21.2 µM (inactive)	33.3 µM (inactive)	27.5 µM (inactive)	42.1 µM (inactive)	26.1 µM (inactive)	18.4 µM (inactive)	37 µM (inactive)	26.3 µM (inactive)	25.6 µM (inactive)	23.1 µM (inactive)	15.6 µM (inactive)	17.6 µM (inactive)	20.2 µM (inactive)	25.9 µM (inactive)	17.3 µM (inactive)	21 µM (inactive)	–	–	–
Cc1cc(N(CCC#N)CCC#N)ccc1/C=C/C(=O)Nc1ccccc1Cl	> 100 µM (inactive)	> 100 µM (inactive)	> 100 µM (inactive)	> 100 µM (inactive)	> 100 µM (inactive)	45.5 µM (inactive)	> 100 µM (inactive)	> 100 µM (inactive)	> 100 µM (inactive)	> 100 µM (inactive)	> 100 µM (inactive)	> 100 µM (inactive)	> 100 µM (inactive)	> 100 µM (inactive)	31.4 µM (inactive)	> 100 µM (inactive)	–	–	–
COc1cc(CC2c3cc(OC)c(OC)cc3CCN2C)c(Oc2cc3c(cc2OC)-c2c(OC)c(OC)c(OC)c4c2C(C3)N(C)CC4)cc1OC (stereo not drawn)	7.23 µM (inactive)	8.39 µM (inactive)	19.7 µM (inactive)	15.4 µM (inactive)	14.8 µM (inactive)	16.4 µM (inactive)	15.6 µM (inactive)	16.6 µM (inactive)	12.7 µM (inactive)	6.53 µM (inactive)	11.7 µM (inactive)	14 µM (inactive)	4.33 µM (inactive)	14 µM (inactive)	9.29 µM (inactive)	16.2 µM (inactive)	–	–	–
NC(=O)CCCC(NCc1c2ccccc2nc2ccccc12)C(=O)O (stereo not drawn)	56.4 µM (inactive)	42.7 µM (inactive)	> 100 µM (inactive)	55 µM (inactive)	27.5 µM (inactive)	22.2 µM (inactive)	50.9 µM (inactive)	56.6 µM (inactive)	29.2 µM (inactive)	27.5 µM (inactive)	22.6 µM (inactive)	22.8 µM (inactive)	94.6 µM (inactive)	41.5 µM (inactive)	20.5 µM (inactive)	> 100 µM (inactive)	–	–	–
CC1(C)C[C@H]2C3=CC[C@@H]4[C@@]5(C)CC[C@H](O)C(C)(C)[C@@H]5CC[C@@]4(C)[C@]3(C)C[C@@H](O)[C@@]23C[C@@H]1OC3=O	44.8 µM (inactive)	> 100 µM (inactive)	> 100 µM (inactive)	> 100 µM (inactive)	> 100 µM (inactive)	> 100 µM (inactive)	> 100 µM (inactive)	> 100 µM (inactive)	70.3 µM (inactive)	> 100 µM (inactive)	56.5 µM (inactive)	65.5 µM (inactive)	55.2 µM (inactive)	> 100 µM (inactive)	37.1 µM (inactive)	> 100 µM (inactive)	59.2 µM (inactive)	–	> 100 µM (inactive)
